Test results: US8765717B2 (Monte Verde S.A., priority 2008, dated 2014)

How the values were obtained:
[1] = 37° C.; cited from earlier work
[2] = system: patients suffering from primary hip or knee arthritis (I, II or III); assay: Clinical trial: Lequesne algo-functional index of severity; type: in vivo, humans; conditions: for Decrease in the Lequesne scale in the 25% of patients with enhanced recovery / Decrease in the Lequesne scale in the 25% of patients with enhanced recovery (percent): 25% of the patients
Method: (§1) Data from a clinical trial with humans is provided herein. The trial was performed with three arms, at random and blind, of patients suffering from different degrees of primary hip or knee arthritis (I, II or III). […] Pain and joint function performance was checked every fifteen days by using the pain VAS and the Lequesne algo-functional index of severity. The VAS assesses the pain in the knee by a visual scale of 100 mm with a total of 10 divisions wherein 0 means no pain and 10 means the deepest pain. […] The severity index is given by the addition of the scores obtained in each item, wherein 24 is the maximum possible score. The higher the index, the more severe is the clinical picture.

[3] = system: patients suffering from primary hip or knee arthritis (I, II or III); assay: Clinical trial: pain VAS; type: in vivo, humans; conditions: check-up visits every fifteen days
Method: as §1

[4] = patients in clinical trials; cited from earlier work

Structure (SMILES)	pKa [1]	Decrease in the Lequesne scale in the 25% of patients with enhanced recovery ([2]; 90 days oral treatment)	Decrease in the Lequesne scale in the 25% of patients with enhanced recovery (percent) ([2]; 90 days oral treatment)	Average improvement in the Lequesne index in 50% of the patients ([2]; 50% of the patients, 90 days oral treatment)	Lequesne scale (Algo-functional index) average decrease ([2]; 90 days, single daily oral dose, 1,500 mg glucosamine sulphate and/or 15 mg meloxicam)	Time after starting treatment at which VAS value showed the highest reduction [3]	Occurrence of adverse gastrointestinal events (bleeding, perforation or ulcers) versus other nonsteroidal anti-inflammatory drugs [4]
N[C@H]1C(O)O[C@H](CO)[C@@H](O)[C@@H]1O (stereo partly drawn) [glucosamine, 2-amin-2 desoxy-alpha-D-glucose]	6.91	3.75 scores	32%	1.5 scores	11%	30 days	
Cc1cnc(NC(=O)C2=C(O)c3ccccc3S(=O)(=O)N2C)s1 [meloxicam, (8E)-8-[hydroxy-[(5-methyl-1,3-thiazol-2-yl)amino]methylidene]-9-methyl-10,10-dioxo-10λ^6-thia-9-azabicyclo[4.4.0]deca-1,3,5-trien-7-one]		4.5 scores	38%			15 days	less frequent
